Values of other authors, collected in PubChem BioAssay AID1259409 (Chemical Carcinogenesis Research Information System (CCRIS), 2018).

System: rodent chemically induced tumor inhibition, incidence and multiplicity
Experiment: CCRIS tumor inhibitor studies
Settings: Route [Inhibitor]: ORAL, Species: HAMSTER, Promoter: NONE USED

## CCNC(=O)/C=C(C)/C=C/C=C(C)/C=C/C1=C(C)CCCC1(C)C
Carcinogen: N-NITROBIS(2-OXOPROPYL)AMINE, 60559-38-4, Dose [Inhibitor]: 0.5 OR 1.0 MMOL/KG DIET DAILY STARTING 1 WK AFTER CARCINOGEN TREATMENT AND CONTINUING THROUGH THE END OF THE STUDY (STUD, Strain/Sex: SYRIAN/MALE, Target Tissue: Type of Lesion: ND: TOTAL TUMOR, Dose [Carcinogen]: 40 MG/KG BW SINGLE ONCE
  tumour outcome (control, treated, inhibition, significance): 20/24 (83%), 37/40 (90%), -8%, not significant
Carcinogen: N-NITROBIS(2-OXOPROPYL)AMINE, 60559-38-4, Dose [Inhibitor]: 0.5 OR 1.0 MMOL/KG DIET DAILY STARTING 1 WK AFTER CARCINOGEN TREATMENT AND CONTINUING THROUGH THE END OF THE STUDY (STUD, Strain/Sex: SYRIAN/MALE, Target Tissue: Type of Lesion: PANCREAS: DUCTULAR ADENOMA, Dose [Carcinogen]: 10 MG/KG BW ONCE
  tumour outcome (control, treated, inhibition, significance): 3/22 (14%), 16/30 (53%), -279%, p<0.05
Carcinogen: N-NITROBIS(2-OXOPROPYL)AMINE, 60559-38-4, Dose [Inhibitor]: 0.5 OR 1.0 MMOL/KG DIET DAILY STARTING 1 WK AFTER CARCINOGEN TREATMENT AND CONTINUING THROUGH THE END OF THE STUDY (STUD, Strain/Sex: SYRIAN/MALE, Target Tissue: Type of Lesion: PANCREAS: DUCTULAR ADENOMA, Dose [Carcinogen]: 40 MG/KG BW ONCE
  tumour outcome (control, treated, inhibition, significance): 8/24 (33%), 33/40 (82%), -148%, not significant
Carcinogen: N-NITROBIS(2-OXOPROPYL)AMINE, 60559-38-4, Dose [Inhibitor]: 0.5 OR 1.0 MMOL/KG DIET DAILY STARTING 1 WK AFTER CARCINOGEN TREATMENT AND CONTINUING THROUGH THE END OF THE STUDY (STUD, Strain/Sex: SYRIAN/MALE, Target Tissue: Type of Lesion: PANCREAS: DUCTULAR CARCINOMA, Dose [Carcinogen]: 10 MG/KG BW ONCE
  tumour outcome (control, treated, inhibition, significance): 4/22 (18%), 10/30 (33%), -83%, not significant
Carcinogen: N-NITROBIS(2-OXOPROPYL)AMINE, 60559-38-4, Dose [Inhibitor]: 0.5 OR 1.0 MMOL/KG DIET DAILY STARTING 1 WK AFTER CARCINOGEN TREATMENT AND CONTINUING THROUGH THE END OF THE STUDY (STUD, Strain/Sex: SYRIAN/MALE, Target Tissue: Type of Lesion: PANCREAS: DUCTULAR CARCINOMA, Dose [Carcinogen]: 40 MG/KG BW ONCE
  tumour outcome (control, treated, inhibition, significance): 5/24 (21%), 20/40 (50%), -138%, not significant
Carcinogen: N-NITROBIS(2-OXOPROPYL)AMINE, 60559-38-4, Dose [Inhibitor]: 0.5 OR 1.0 MMOL/KG IN DIET STARTING 1 WK AFTER CARCINOGEN DOSE FOR DURATION OF STUDY (STUDY DURATION: 40 WK), Strain/Sex: SYRIAN/FEMALE, Target Tissue: Type of Lesion: LIVER: BENIGN TUMOR, Dose [Carcinogen]: 40 MG/KG BW SINGLE INJECTION
  tumour outcome (control, treated, inhibition, significance): 4/20 (20%), 17/37 (46%), -130%, not significant
Carcinogen: N-NITROBIS(2-OXOPROPYL)AMINE, 60559-38-4, Dose [Inhibitor]: 0.5 OR 1.0 MMOL/KG IN DIET STARTING 1 WK AFTER CARCINOGEN DOSE FOR DURATION OF STUDY (STUDY DURATION: 40 WK), Strain/Sex: SYRIAN/MALE, Target Tissue: Type of Lesion: LIVER: BENIGN TUMOR, Dose [Carcinogen]: 40 MG/KG BW SINGLE INJECTION
  tumour outcome (control, treated, inhibition, significance): 5/24 (21%), 25/41 (62%), -195%, p<0.05
Carcinogen: N-NITROBIS(2-OXOPROPYL)AMINE, 60559-38-4, Dose [Inhibitor]: 0.5 OR 1.0 MMOL/KG/D IN DIET STARTING 1 WK AFTER CARCINOGEN TREATMENT AND CONTINUING THROUGH THE END OF THE STUDY (STUDY, Strain/Sex: SYRIAN/FEMALE, Target Tissue: Type of Lesion: PANCREAS: DUCTULAR ADENOMA, Dose [Carcinogen]: 10 MG/KG BW ONCE
  tumour outcome (control, treated, inhibition, significance): 5/23 (23%), 13/25 (52%), -126%, not significant
Carcinogen: N-NITROBIS(2-OXOPROPYL)AMINE, 60559-38-4, Dose [Inhibitor]: 0.5 OR 1.0 MMOL/KG/D IN DIET STARTING 1 WK AFTER CARCINOGEN TREATMENT AND CONTINUING THROUGH THE END OF THE STUDY (STUDY, Strain/Sex: SYRIAN/FEMALE, Target Tissue: Type of Lesion: PANCREAS: DUCTULAR ADENOMA, Dose [Carcinogen]: 40 MG/KG BW ONCE
  tumour outcome (control, treated, inhibition, significance): 12/20 (60%), 27/37 (73%), -22%, not significant
Carcinogen: N-NITROBIS(2-OXOPROPYL)AMINE, 60559-38-4, Dose [Inhibitor]: 0.5 OR 1.0 MMOL/KG/D IN DIET STARTING 1 WK AFTER CARCINOGEN TREATMENT AND CONTINUING THROUGH THE END OF THE STUDY (STUDY, Strain/Sex: SYRIAN/FEMALE, Target Tissue: Type of Lesion: PANCREAS: DUCTULAR CARCINOMA, Dose [Carcinogen]: 10 MG/KG BW ONCE
  tumour outcome (control, treated, inhibition, significance): 6/23 (27%), 6/25 (24%), 11%, not significant
Carcinogen: N-NITROBIS(2-OXOPROPYL)AMINE, 60559-38-4, Dose [Inhibitor]: 0.5 OR 1.0 MMOL/KG/D IN DIET STARTING 1 WK AFTER CARCINOGEN TREATMENT AND CONTINUING THROUGH THE END OF THE STUDY (STUDY, Strain/Sex: SYRIAN/MALE, Target Tissue: Type of Lesion: PANCREAS: DUCTULAR ADENOMA, Dose [Carcinogen]: 10 MG/KG BW ONCE
  tumour outcome (control, treated, inhibition, significance): 3/22 (14%), 16/30 (53%), -279%, p<0.05
Carcinogen: N-NITROBIS(2-OXOPROPYL)AMINE, 60559-38-4, Dose [Inhibitor]: 0.5 OR 1.0 MMOL/KG/D IN DIET STARTING 1 WK AFTER CARCINOGEN TREATMENT AND CONTINUING THROUGH THE END OF THE STUDY (STUDY, Strain/Sex: SYRIAN/MALE, Target Tissue: Type of Lesion: PANCREAS: DUCTULAR ADENOMA, Dose [Carcinogen]: 40 MG/KG BW ONCE
  tumour outcome (control, treated, inhibition, significance): 8/24 (33%), 33/40 (82%), -148%, not significant
Carcinogen: N-NITROBIS(2-OXOPROPYL)AMINE, 60559-38-4, Dose [Inhibitor]: 0.5 OR 1.0 MMOL/KG/D IN DIET STARTING 1 WK AFTER CARCINOGEN TREATMENT AND CONTINUING THROUGH THE END OF THE STUDY (STUDY, Strain/Sex: SYRIAN/MALE, Target Tissue: Type of Lesion: PANCREAS: DUCTULAR CARCINOMA, Dose [Carcinogen]: 10 MG/KG BW ONCE
  tumour outcome (control, treated, inhibition, significance): 4/22 (18%), 10/30 (33%), -83%, not significant
Carcinogen: N-NITROBIS(2-OXOPROPYL)AMINE, 60559-38-4, Dose [Inhibitor]: 0.5 OR 1.0 MMOL/KG/D IN DIET STARTING 1 WK AFTER CARCINOGEN TREATMENT AND CONTINUING THROUGH THE END OF THE STUDY (STUDY, Strain/Sex: SYRIAN/MALE, Target Tissue: Type of Lesion: PANCREAS: DUCTULAR CARCINOMA, Dose [Carcinogen]: 40 MG/KG BW ONCE
  tumour outcome (control, treated, inhibition, significance): 5/24 (21%), 20/40 (50%), -138%, not significant
Carcinogen: N-NITROBIS(2-OXOPROPYL)AMINE, 60599-38-4, Dose [Inhibitor]: 0.5 OR 1 MMOL/KG DIET DAILY STARTING 1 WK AFTER CARCINOGEN TREATMENT AND CONTINUING THROUGH THE END OF THE STUDY (STUDY, Strain/Sex: SYRIAN/FEMALE, Target Tissue: Type of Lesion: PANCREAS: DUCTULAR CARCINOMA, Dose [Carcinogen]: 40 MG/KG BW ONCE
  tumour outcome (control, treated, inhibition, significance): 6/20 (30%), 16/37 (43%), -43%, not significant
Carcinogen: N-NITROBIS(2-OXOPROPYL)AMINE, 60599-38-4, Dose [Inhibitor]: 0.5 OR 1.0 MMOL/KG/D IN DIET STARTING 1 WK AFTER CARCINOGEN TREATMENT AND CONTINUING THROUGH THE END OF THE STUDY (STUDY, Strain/Sex: SYRIAN/FEMALE, Target Tissue: Type of Lesion: PANCREAS: DUCTULAR CARCINOMA, Dose [Carcinogen]: 40 MG/KG BW ONCE
  tumour outcome (control, treated, inhibition, significance): 6/20 (30%), 16/37 (43%), -43%, not significant
Carcinogen: N-NITROSOBIS(2-OXYPROPYL)AMINE, 60599-38-4, Dose [Inhibitor]: 0.05, 0.1 OR 0.2 MILLIMOLAR/KG DIET FOR 32 WK STARTING 1 WK AFTER THE CARCINOGEN DOSE (STUDY DURATION: 33 WK), Strain/Sex: SYRIAN/FEMALE, Target Tissue: Type of Lesion: COMMON DUCT: ADENOMA, Dose [Carcinogen]: 40 MG/KG ONCE
  tumour outcome (control, treated, inhibition, significance): 4/10 (40%), 7/26 (32%), 20%, not significant
